In general, IC50 refers to the concentration that gives 50% inhibition.

One assay deals with DOHH2 cells. The assay is described as follows: Cell proliferation assay in DOHH2 cells (MTS). The conditions noted are these: 120 h. Format: cell-based. The procedure:
To investigate whether a compound is able to inhibit the activity of BTK in cells, a mechanism-based assay using DOHH2 (DSMZ catalog #: ACC47) cell was developed. In this assay, inhibition of BTK was detected by the inhibition of DOHH2 cells proliferation. Cells were collected and plated onto 96-well plates at the optimized cell density (5000 cells/well). Plates were incubated at 37° C., with 5% CO2 for 4 h. Compounds were serially diluted and added to the plates with the final concentrations as 10000, 3333.3, 1111.1, 370.4, 123.5, 41.2, 13.7, 4.6 and 1.5 nM. Plates were incubated at 37° C., with 5% CO2 for 120 h. An aliquot of 20 μL MTS/100 μL medium mixture solution were added to each well and the plates were incubated for exactly 2 h. The reaction was stopped by adding 25 μL 10% SDS to each well. The absorbance was measured by a microplate reader at 490 nm and 650 nm (reference wavelength). IC50 was calculated using GraphPad Prism 5.0.
Select compounds prepared as described above were assayed according to the biological procedures described herein.
Take `Cc1cc(Oc2ccccc2)ccc1C(=O)c1c[nH]c2ncc(C#N)c(N[C@@]34COC(CO)[C@@H]3C4)c12` (single isomer, unassigned) [Example 19]: the half-inhibitory concentration (IC50) was 88 nM.

`Cc1cc(Oc2ccccc2)ccc1C(=O)c1c[nH]c2ncc(C#N)c(N[C@@]34COC(CO)[C@@H]3C4)c12` (single isomer, unassigned) [Example 20] showed a 50% inhibitory concentration (IC50) of 20 nM.

With `COc1cnc2[nH]cc(C(=O)c3ccc(Oc4ccccc4F)cc3C)c2c1N[C@@]12CO[C@H](CO)C1C2` (single isomer, unassigned) [Example 167], the half-maximal inhibitory concentration (IC50) was determined as 18 nM.

In turn, `COc1cnc2[nH]cc(C(=O)c3ccc(Oc4ccccc4F)cc3F)c2c1N[C@@]12CO[C@H](CO)C1C2` (single isomer, unassigned) [Example 168] showed an IC50 of 8 nM.

`COc1cnc2[nH]cc(C(=O)c3ccc(Oc4ccccc4F)cc3F)c2c1N[C@@]12CO[C@H](CO)C1C2` (single isomer, unassigned) [Example 169] displayed a half-maximal inhibitory concentration (IC50) of 65 nM.

`CCOc1cnc2[nH]cc(C(=O)c3ccc(Oc4ccccc4F)cc3C)c2c1N[C@@]12CO[C@H](CO)C1C2` (single isomer, unassigned) [Example 170]: 12 nM corresponded to half-maximal inhibition (IC50).

`CCOc1cnc2[nH]cc(C(=O)c3ccc(Oc4ccccc4F)cc3C)c2c1N[C@@]12CO[C@H](CO)C1C2` (single isomer, unassigned) [Example 171] returned a concentration for half-maximal inhibition (IC50) of 2 nM.

`CCOc1cnc2[nH]cc(C(=O)c3ccc(Oc4ccccc4F)cc3F)c2c1N[C@@]12CO[C@H](CO)C1C2` (single isomer, unassigned) [Example 172] registered a concentration for half-maximal inhibition (IC50) of 1 nM.

Turning to `CCOc1cnc2[nH]cc(C(=O)c3ccc(Oc4ccccc4F)cc3F)c2c1N[C@@]12CO[C@H](CO)C1C2` (single isomer, unassigned) [Example 173], half-maximal inhibition (IC50) was put at 7 nM.

As for `CCOc1cnc2[nH]cc(C(=O)c3ccc(Oc4ccccc4)cc3F)c2c1N[C@@]12CO[C@H](CO)C1C2` (single isomer, unassigned) [Example 181], 1 nM corresponded to half-maximal inhibition (IC50).

In the case of `CCOc1cnc2[nH]cc(C(=O)c3ccc(Oc4ccccc4)cc3F)c2c1N[C@@]12CO[C@H](CO)C1C2` (single isomer, unassigned) [Example 182], the IC50 was determined as 31 nM.

Staying with this assay, now noted: Homo sapiens, DOHH-2, 120 h.
Compound `N#Cc1cnc2[nH]cc(C(=O)c3ccc(Oc4ccccc4)cc3Cl)c2c1N[C@@]12COC(CO)[C@@H]1C2` (single isomer, unassigned) [Example 17] returned a concentration for half-maximal inhibition (IC50) of 43 nM.

For the compound `COc1cnc2[nH]cc(C(=O)c3ccc(Oc4ccccc4F)cc3C)c2c1N[C@@]12CO[C@H](CO)C1C2` (single isomer, unassigned) [Example 166], the IC50 turned out to be 21 nM.

`Cc1cc(Oc2ccccc2F)ccc1C(=O)c1c[nH]c2ncc(F)c(N[C@@]34CO[C@H](CO)C3C4)c12` (single isomer, unassigned) [Example 179] had a concentration for half-maximal inhibition (IC50) of 1 nM.

`O=C(c1ccc(Oc2ccccc2)cc1Cl)c1c[nH]c2ncc(F)c(N[C@@H]3CC[C@@H](CO)OC3)c12` [Example 6, (2-chloro-4-phenoxyphenyl)(5-fluoro-4-(((3R,6S)-6-(hydroxymethyl)tetrahydro-2H-pyran-3-yl)amino)-1H-pyrrolo[2,3-b]pyridin-3-yl)methanone] showed an IC50 of 89 nM.

As for `N#Cc1cnc2[nH]cc(C(=O)c3ccc(Oc4ccccc4)cc3Cl)c2c1N[C@@H]1CC[C@@H](CO)OC1` [Example 7, 3-(2-chloro-4-phenoxybenzoyl)-4-(((3R,6S)-6-(hydroxymethyl)tetrahydro-2H-pyran-3-yl)amino)-1H-pyrrolo[2,3-b]pyridine-5-carbonitrile], the IC50 is 83 nM.

`O=C(c1ccc(Oc2ccccc2)cc1F)c1c[nH]c2nccc(N[C@@H]3CC[C@@H](CO)OC3)c12` [Example 10, (2-fluoro-4-phenoxyphenyl)(4-(((3R,6S)-6-(hydroxymethyl)tetrahydro-2H-pyran-3-yl)amino)-1H-pyrrolo[2,3-b]pyridin-3-yl)methanone] came in with an IC50 of 19 nM.

`Cc1cc(Oc2ccccc2)ccc1C(=O)c1c[nH]c2ncc(C#N)c(N[C@@H]3CC[C@@H](CO)OC3)c12` [Example 11, 4-(((3R,6S)-6-(hydroxymethyl)tetrahydro-2H-pyran-3-yl)amino)-3-(2-methyl-4-phenoxybenzoyl)-1H-pyrrolo[2,3-b]pyridine-5-carbonitrile] registered a half-maximal inhibitory concentration (IC50) of 60 nM.

Compound `Cc1cc(Oc2ccccc2)ccc1C(=O)c1c[nH]c2nccc(N[C@@H]3CC[C@@H](CO)OC3)c12` [Example 13, (4-(((3R,6S)-6-(hydroxymethyl)tetrahydro-2H-pyran-3-yl)amino)-1H-pyrrolo[2,3-b]pyridin-3-yl)(2-methyl-4-phenoxyphenyl)methanone] displayed a 50% inhibitory concentration (IC50) of 19 nM.

For `Cc1cc(Oc2ccccc2)ccc1C(=O)c1c[nH]c2ncc(F)c(N[C@@H]3CC[C@@H](CO)OC3)c12` [Example 15, (5-fluoro-4-(((3R,6S)-6-(hydroxymethyl)tetrahydro-2H-pyran-3-yl)amino)-1H-pyrrolo[2,3-b]pyridin-3-yl)(2-methyl-4-phenoxyphenyl)methanone], the midpoint of inhibition, the IC50, lay at 85 nM.

Regarding `O=C(c1ccc(Oc2ccccc2)cc1)c1c[nH]c2nccc(N[C@@H]3CC[C@@H](CO)OC3)c12` [Example 28, (4-(((3R,6S)-6-(hydroxymethyl)tetrahydro-2H-pyran-3-yl)amino)-1H-pyrrolo[2,3-b]pyridin-3-yl)(4-phenoxyphenyl)methanone], the concentration for half-maximal inhibition (IC50) worked out at 32 nM.

Regarding `N#Cc1cnc2[nH]cc(C(=O)c3ccc(Oc4ccccc4)cc3)c2c1N[C@@H]1CC[C@@H](CO)OC1` [Example 29, 4-(((3R,6S)-6-(hydroxymethyl)tetrahydro-2H-pyran-3-yl)amino)-3-(4-phenoxybenzoyl)-1H-pyrrolo[2,3-b]pyridine-5-carbonitrile], the 50% inhibitory concentration (IC50) turned out to be 99 nM.

As for `O=C(c1ccc(Oc2ccccc2F)cc1Cl)c1c[nH]c2nccc(N[C@@H]3CC[C@@H](CO)OC3)c12` [Example 30, (2-chloro-4-(2-fluorophenoxy)phenyl)(4-(((3R,6S)-6-(hydroxymethyl)tetrahydro-2H-pyran-3-yl)amino)-1H-pyrrolo[2,3-b]pyridin-3-yl)methanone], the half-maximal inhibitory concentration (IC50) turned out to be 21 nM.

Turning to `N#Cc1cnc2[nH]cc(C(=O)c3ccc(Oc4ccccc4F)cc3Cl)c2c1N[C@@H]1CC[C@@H](CO)OC1` [Example 32, 3-(2-chloro-4-(2-fluorophenoxy)benzoyl)-4-(((3R,6S)-6-(hydroxymethyl)tetrahydro-2H-pyran-3-yl)amino)-1H-pyrrolo[2,3-b]pyridine-5-carbonitrile], the IC50 came out at 15 nM.

For `O=C(c1ccc(Oc2ccccc2)c(Cl)c1Cl)c1c[nH]c2nccc(N[C@@H]3CC[C@@H](CO)OC3)c12` [Example 36, (2,3-dichloro-4-phenoxyphenyl)(4-(((3R,6S)-6-(hydroxymethyl)tetrahydro-2H-pyran-3-yl)amino)-1H-pyrrolo[2,3-b]pyridin-3-yl)methanone], the IC50 came out at 69 nM.

The compound `N#Cc1cnc2[nH]cc(C(=O)c3ccc(Oc4ccccc4)c(Cl)c3Cl)c2c1N[C@@H]1CC[C@@H](CO)OC1` [Example 37, 3-(2,3-dichloro-4-phenoxybenzoyl)-4-(((3R,6S)-6-(hydroxymethyl)tetrahydro-2H-pyran-3-yl)amino)-1H-pyrrolo[2,3-b]pyridine-5-carbonitrile] registered an IC50 of 48 nM.

(Values after patent publication US20220235049A1, “SUBSTITUTED PYRROLO [2, 3-b] PYRIDINE AND PYRAZOLO [3,4-b] PYRIDINE DERIVATIVES AS PROTEIN KINASE INHIBITORS” (Fochon Pharmaceuticals, Ltd., priority 2019, published 2022).)
